{"source": "the supplement of paper PMC10307832", "assay_in_all_cases": "relative viability (nuclei count vs DMSO), 5 days (fraction); higher = more cells survive", "key": {"NCI-H2009": {"tested_on": "NCI-H2009", "outline": "(§1)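 Lung cancer cell lines, seeded in 1536-well plates, were treated the following day by pin tool with a single drug or with five library-drug doses (not always all listed) in √10 steps on top of a fixed anchor-drug dose. Cells were fixed and nuclei stained in one step after 5 days, and nuclei were counted. Relative viability is the nuclei count for treated wells divided by that for vehicle wells, reported as medians of duplicate plates.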"}, "NCI-H522": {"tested_on": "NCI-H522", "outline": "as §1"}, "NCI-H2342": {"tested_on": "NCI-H2342", "outline": "as §1"}, "NCI-H460": {"tested_on": "NCI-H460", "outline": "as §1"}, "HCC-78": {"tested_on": "HCC-78", "outline": "as §1"}, "NCI-H661": {"tested_on": "NCI-H661", "outline": "as §1"}, "NCI-H1648": {"tested_on": "NCI-H1648", "outline": "as §1"}}, "data": [{"molecule": "CCN(CC)CCCCNc1ncc2cc(-c3cc(OC)cc(OC)c3)c(NC(=O)NC(C)(C)C)nc2n1", "note": "+ Nc1nc2[nH]cc(CCc3ccc(C(=O)N[C@@H](CCC(=O)O)C(=O)O)cc3)c2c(=O)[nH]1 [Pemetrexed] (partner 0.2 µM)", "values": [{"measurement": "relative viability", "setting": "NCI-H2009; first compound 0.01 µM", "value": 1.12}, {"measurement": "relative viability", "setting": "NCI-H2009; first compound 0.03162 µM", "value": 1.03}, {"measurement": "relative viability", "setting": "NCI-H2009; first compound 0.1 µM", "value": 1.08}, {"measurement": "relative viability", "setting": "NCI-H2009; first compound 0.3162 µM", "value": 1.18}, {"measurement": "relative viability", "setting": "NCI-H2009; first compound 1 µM", "value": 0.988}, {"measurement": "relative viability", "setting": "NCI-H522; first compound 0.01 µM", "value": 0.989}, {"measurement": "relative viability", "setting": "NCI-H522; first compound 0.03162 µM", "value": 0.918}, {"measurement": "relative viability", "setting": "NCI-H522; first compound 0.1 µM", "value": 1.09}, {"measurement": "relative viability", "setting": "NCI-H522; first compound 0.3162 µM", "value": 0.888}, {"measurement": "relative viability", "setting": "NCI-H522; first compound 1 µM", "value": 0.921}, {"measurement": "relative viability", "setting": "NCI-H2342; first compound 0.01 µM", "value": 0.762}, {"measurement": "relative viability", "setting": "NCI-H2342; first compound 0.03162 µM", "value": 0.777}, {"measurement": "relative viability", "setting": "NCI-H2342; first compound 0.1 µM", "value": 0.803}, {"measurement": "relative viability", "setting": "NCI-H2342; first compound 0.3162 µM", "value": 0.818}, {"measurement": "relative viability", "setting": "NCI-H2342; first compound 1 µM", "value": 0.755}, {"measurement": "relative viability", "setting": "NCI-H460; first compound 0.01 µM", "value": 0.0558}, {"measurement": "relative viability", "setting": "NCI-H460; first compound 0.03162 µM", "value": 0.0576}, {"measurement": "relative viability", "setting": "NCI-H460; first compound 0.1 µM", "value": 0.0567}, {"measurement": "relative viability", "setting": "NCI-H460; first compound 0.3162 µM", "value": 0.056}, {"measurement": "relative viability", "setting": "NCI-H460; first compound 1 µM", "value": 0.0563}, {"measurement": "relative viability", "setting": "HCC-78; first compound 0.01 µM", "value": 0.919}, {"measurement": "relative viability", "setting": "HCC-78; first compound 0.03162 µM", "value": 0.933}, {"measurement": "relative viability", "setting": "HCC-78; first compound 0.1 µM", "value": 0.949}, {"measurement": "relative viability", "setting": "HCC-78; first compound 0.3162 µM", "value": 0.947}, {"measurement": "relative viability", "setting": "HCC-78; first compound 1 µM", "value": 0.89}, {"measurement": "relative viability", "setting": "NCI-H661; first compound 0.01 µM", "value": 0.968}, {"measurement": "relative viability", "setting": "NCI-H661; first compound 0.03162 µM", "value": 0.886}, {"measurement": "relative viability", "setting": "NCI-H661; first compound 0.1 µM", "value": 0.961}, {"measurement": "relative viability", "setting": "NCI-H661; first compound 0.3162 µM", "value": 0.986}, {"measurement": "relative viability", "setting": "NCI-H661; first compound 1 µM", "value": 0.95}, {"measurement": "relative viability", "setting": "NCI-H1648; first compound 0.01 µM", "value": 0.7}, {"measurement": "relative viability", "setting": "NCI-H1648; first compound 0.03162 µM", "value": 0.815}, {"measurement": "relative viability", "setting": "NCI-H1648; first compound 0.1 µM", "value": 0.722}, {"measurement": "relative viability", "setting": "NCI-H1648; first compound 0.3162 µM", "value": 0.491}, {"measurement": "relative viability", "setting": "NCI-H1648; first compound 1 µM", "value": 0.487}]}, {"molecule": "COc1nc(C)cnc1NS(=O)(=O)c1cccnc1-c1ccc(-c2nnco2)cc1", "note": "[Zibotentan] + CC(=O)Nc1cccc(-n2c(=O)n(C3CC3)c(=O)c3c(Nc4ccc(I)cc4F)n(C)c(=O)c(C)c32)c1 [Trametinib] (partner 0.02 µM)", "values": [{"measurement": "relative viability", "setting": "NCI-H2009; first compound 0.08 µM", "value": 0.273}, {"measurement": "relative viability", "setting": "NCI-H2009; first compound 0.253 µM", "value": 0.258}, {"measurement": "relative viability", "setting": "NCI-H2009; first compound 0.8 µM", "value": 0.266}, {"measurement": "relative viability", "setting": "NCI-H2009; first compound 2.53 µM", "value": 0.278}, {"measurement": "relative viability", "setting": "NCI-H522; first compound 0.08 µM", "value": 0.732}, {"measurement": "relative viability", "setting": "NCI-H522; first compound 0.253 µM", "value": 0.667}, {"measurement": "relative viability", "setting": "NCI-H522; first compound 0.8 µM", "value": 0.727}, {"measurement": "relative viability", "setting": "NCI-H522; first compound 2.53 µM", "value": 0.856}, {"measurement": "relative viability", "setting": "NCI-H2342; first compound 0.08 µM", "value": 0.848}, {"measurement": "relative viability", "setting": "NCI-H2342; first compound 0.253 µM", "value": 0.78}, {"measurement": "relative viability", "setting": "NCI-H2342; first compound 0.8 µM", "value": 0.844}, {"measurement": "relative viability", "setting": "NCI-H2342; first compound 2.53 µM", "value": 1.16}, {"measurement": "relative viability", "setting": "NCI-H460; first compound 0.08 µM", "value": 0.159}, {"measurement": "relative viability", "setting": "NCI-H460; first compound 0.253 µM", "value": 0.0304}, {"measurement": "relative viability", "setting": "NCI-H460; first compound 0.8 µM", "value": 0.0981}, {"measurement": "relative viability", "setting": "NCI-H460; first compound 2.53 µM", "value": 0.196}, {"measurement": "relative viability", "setting": "HCC-78; first compound 0.08 µM", "value": 0.825}, {"measurement": "relative viability", "setting": "HCC-78; first compound 0.253 µM", "value": 0.569}, {"measurement": "relative viability", "setting": "HCC-78; first compound 0.8 µM", "value": 0.665}, {"measurement": "relative viability", "setting": "HCC-78; first compound 2.53 µM", "value": 0.652}, {"measurement": "relative viability", "setting": "NCI-H661; first compound 0.08 µM", "value": 0.574}, {"measurement": "relative viability", "setting": "NCI-H661; first compound 0.253 µM", "value": 0.495}, {"measurement": "relative viability", "setting": "NCI-H661; first compound 0.8 µM", "value": 0.589}, {"measurement": "relative viability", "setting": "NCI-H661; first compound 2.53 µM", "value": 0.601}, {"measurement": "relative viability", "setting": "NCI-H1648; first compound 0.08 µM", "value": 0.49}, {"measurement": "relative viability", "setting": "NCI-H1648; first compound 0.253 µM", "value": 0.529}, {"measurement": "relative viability", "setting": "NCI-H1648; first compound 0.8 µM", "value": 0.442}, {"measurement": "relative viability", "setting": "NCI-H1648; first compound 2.53 µM", "value": 0.604}]}, {"molecule": "O=c1cc(N2CCOCC2)oc2c(-c3cccc4c3sc3ccccc34)cccc12", "note": "+ CC(=O)Nc1cccc(-n2c(=O)n(C3CC3)c(=O)c3c(Nc4ccc(I)cc4F)n(C)c(=O)c(C)c32)c1 [Trametinib] (partner 0.02 µM)", "values": [{"measurement": "relative viability", "setting": "NCI-H2009; first compound 0.01 µM", "value": 0.315}, {"measurement": "relative viability", "setting": "NCI-H2009; first compound 0.03162 µM", "value": 0.294}, {"measurement": "relative viability", "setting": "NCI-H2009; first compound 0.1 µM", "value": 0.255}, {"measurement": "relative viability", "setting": "NCI-H2009; first compound 0.3162 µM", "value": 0.279}, {"measurement": "relative viability", "setting": "NCI-H2009; first compound 1 µM", "value": 0.212}, {"measurement": "relative viability", "setting": "NCI-H522; first compound 0.01 µM", "value": 0.733}, {"measurement": "relative viability", "setting": "NCI-H522; first compound 0.03162 µM", "value": 0.86}, {"measurement": "relative viability", "setting": "NCI-H522; first compound 0.1 µM", "value": 0.793}, {"measurement": "relative viability", "setting": "NCI-H522; first compound 0.3162 µM", "value": 0.684}, {"measurement": "relative viability", "setting": "NCI-H522; first compound 1 µM", "value": 0.963}, {"measurement": "relative viability", "setting": "NCI-H2342; first compound 0.01 µM", "value": 0.728}, {"measurement": "relative viability", "setting": "NCI-H2342; first compound 0.03162 µM", "value": 0.874}, {"measurement": "relative viability", "setting": "NCI-H2342; first compound 0.1 µM", "value": 0.928}, {"measurement": "relative viability", "setting": "NCI-H2342; first compound 0.3162 µM", "value": 0.962}, {"measurement": "relative viability", "setting": "NCI-H2342; first compound 1 µM", "value": 0.833}, {"measurement": "relative viability", "setting": "NCI-H460; first compound 0.01 µM", "value": 0.104}, {"measurement": "relative viability", "setting": "NCI-H460; first compound 0.03162 µM", "value": 0.127}, {"measurement": "relative viability", "setting": "NCI-H460; first compound 0.1 µM", "value": 0.185}, {"measurement": "relative viability", "setting": "NCI-H460; first compound 0.3162 µM", "value": 0.197}, {"measurement": "relative viability", "setting": "NCI-H460; first compound 1 µM", "value": 0.12}, {"measurement": "relative viability", "setting": "HCC-78; first compound 0.01 µM", "value": 0.801}, {"measurement": "relative viability", "setting": "HCC-78; first compound 0.03162 µM", "value": 0.699}, {"measurement": "relative viability", "setting": "HCC-78; first compound 0.1 µM", "value": 0.899}, {"measurement": "relative viability", "setting": "HCC-78; first compound 0.3162 µM", "value": 0.806}, {"measurement": "relative viability", "setting": "HCC-78; first compound 1 µM", "value": 0.651}, {"measurement": "relative viability", "setting": "NCI-H661; first compound 0.01 µM", "value": 0.541}, {"measurement": "relative viability", "setting": "NCI-H661; first compound 0.03162 µM", "value": 0.587}, {"measurement": "relative viability", "setting": "NCI-H661; first compound 0.1 µM", "value": 0.674}, {"measurement": "relative viability", "setting": "NCI-H661; first compound 0.3162 µM", "value": 0.581}, {"measurement": "relative viability", "setting": "NCI-H661; first compound 1 µM", "value": 0.603}, {"measurement": "relative viability", "setting": "NCI-H1648; first compound 0.03162 µM", "value": 0.471}, {"measurement": "relative viability", "setting": "NCI-H1648; first compound 0.1 µM", "value": 0.5}, {"measurement": "relative viability", "setting": "NCI-H1648; first compound 0.3162 µM", "value": 0.446}, {"measurement": "relative viability", "setting": "NCI-H1648; first compound 1 µM", "value": 0.483}]}]}
